Measurements published in patent publication US7659277B2, “Ubiquitin ligase inhibitors and methods related thereto” (Proteologies, Ltd., priority 2003, dated 2010).

What was measured:
[1] = tested on: HIV-1; assay: HIV maturation (budding) in virus-like particle assay, HIV-1 p24 antigen ELISA; type: cell-based; conditions: Human immunodeficiency virus 1, read-out: Budding (3 μM)
Text: Compounds were further assessed for effects on maturation of HIV particles in a virus-like particle assay.

[2] = molecular target: T1, POSH (Homo sapiens, UniProt Q7Z6J0); assay: IC50 assay procedure: GST-POSH auto-ubiquitination, homogeneous time-resolved fluorescence (Ub-cryptate / anti-GST XL665); type: biochemical; conditions: ubiquitin ligase activity of POSH; GST-POSH 33 nM, 30 min preincubation
T1 construct: GST-POSH lot NB81/p.118 3.6 mg/ml; fused on or other part: GST tag, used for detection with anti-GST XL665
T1 sequence (Q7Z6J0 1-269 limits assumed): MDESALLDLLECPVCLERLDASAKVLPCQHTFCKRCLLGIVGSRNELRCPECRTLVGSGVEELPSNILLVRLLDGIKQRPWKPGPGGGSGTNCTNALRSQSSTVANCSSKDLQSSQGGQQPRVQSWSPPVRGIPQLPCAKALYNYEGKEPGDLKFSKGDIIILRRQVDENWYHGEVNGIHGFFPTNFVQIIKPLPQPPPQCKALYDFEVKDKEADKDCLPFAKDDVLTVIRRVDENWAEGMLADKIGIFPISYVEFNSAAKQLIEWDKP
Text: In certain preferred embodiments, agents that inhibit (or promote) the ubiquitin ligase activity of a ubiquitin ligase, such as POSH, may be identified using a homogenous time resolved fluorescence assay. Such an assay may employ a GST fused to the RING subunit of a ubiquitin ligase (e.g. POSH). Two flurophore-conjugated detection reagents are also used: anti-GSTXL665 and europium cryptate labeled ubiqutin. The ubiqutination of the ubiquitin ligase by ubiqutin cryptate and binding of the anti-GST tagged XL665 brings the fluorophores into close proximity allowing FRET reaction to occur. Accordingly, FRET serves as a measurement of ubiquitination of the ubiquitin ligase. An enzymatic system may be set up to provide activated ubiquitin, e.g., by providing ubiquitin, an E1 and an E2. Compounds that will not allow the FRET reaction are considered to be inhibitors.
Step 3: establish IC 50 value measurements.
Experimental Protocols: 1. HTS Screening Assay Procedure • Microplates 10109D to 10114D compounds at 1 mM. • (Controls in column 1). • All compounds were perchase from ChemBridge corporation: ChemBridge corporation 16981 Via Tazon, Suite G San Diego, Calif. 92127 a. Microplates Labeling • Put labels to 6 PS U-bottom clear microplate. • Put labels to 18 black microplates (triplicats). b. Microplates Preparation • Put 100 μl GST-POSH at 33 nM in wells of the clear PS U-bottom microplates (exept wells A1-D1). • Negative control: place 100 μl dH2O in wells A1-D1. • (Positive control: place 100 μl GST-POSH at 33 nM in wells E1-H1). • Put 8 μl enzymes solution ×4 to black microplates (column 1 to 11). c. Incubation of E3 with Compounds • Transfer 5 μl of compounds (at 1 mM) to the microplates containing 100 μl GST-POSH. • Add 5 μl of DMSO to controls column 1. • Incubation 30 minutes at RT. d. Enzymatic (Ubiquitination) and Final Steps • Distribution of (triplicate) 3×23 μl incubated compounds into 3 black microplates containing enzymatic solution (on splitting apparatus). • Incubation 30 minutes at 37° C. • Addition of 8 μl EDTA 0.5 M. • Incubation 15 (at least) minutes at RT. • Addition of 30 μl GST XL 665 in reconstitution buffer. • Incubation 45 (at least) minutes at RT. • Reading fluorescence. • Record results in computer. • Put sealing foil back on original and diluted microplates and keep at −70° C. • Always the plates must be closed with lids during each step. 2. […] Microplates Labeling • Put labels to 4 clear PP clear microplate (18.2 μM, 9.1 uM, 1.82 uM, 910 nM,). • Put labels to 5 clear PS U-bottom clear microplate 4.44 μM, 909, 444, 91 and 44 nM) • Put labels to 15 black microplates (triplicates). f. Original Microplate Dilutions • Put DMSO 40 μl to (18.2 μM, 1.82 uM plates) and 20 ul to (9.1 uM, 910 nM plates. • Mix by pipetation the original microplate (3× up and down 45 μl). • Transfer 10 μl of compounds from the original microplate (at 91 μM) to the next microplate (=18.2 μM) on splitting apparatus. • Mix by pipetation the 18.2 uM microplate (3× up and down 45 μl). • Transfer 20 μl of compounds from the 18.2 uM microplate to the next microplate (=9.1 μM) on splitting apparatus. • Mix by pipetation the 9.1 uM microplate (3× up and down 45 μl). • Transfer 10 μl of compounds from the 9.1 uM microplate to the next microplate (=1.82 μM) on splitting apparatus. • Mix by pipetation the 1.82 uM microplate (3× up and down 45 μl). • Transfer 20 μl of compounds from the 1.82 uM microplate to the next microplate (=910 nM) on splitting apparatus • Mix by pipetation. g. Microplates Preparation • Put 123 μl GST-POSH at 33 nM in wells of the 5 clear PS U-bottom clear microplates. • Positive control: place 123 μl GST-POSH at 33 nM in well A12-h12 13 μl DMSO. • Negative control: place 123 μl dH2O in well B1 and 13 μl DMSO. • Put 8 μl enzymes solution ×4 to 15 black microplates. • Controls: put 8 μl enzymes solution ×4 to wells A1 to F1. h. […]

[3] = tested on: E2 protein; type: biochemical; conditions: % activity at 1 μM compound; control is related to 100% activity; HTS protocol
[4] = molecular target: c-cbl (Homo sapiens, UniProt P22681); assay: Selectivity (% A in 1 μM), ubiquitin ligase activity of c-cbl; type: biochemical; conditions: % activity at 1 μM compound; control is related to 100% activity; HTS protocol

Compound | activity at 3 µM [1] | IC50 [2] | Selectivity (% A* in 1 μM) E2 [3] | remaining activity at 1 µM [4]
O=C1C=CC(=O)N1c1ccc(Cl)cc1 [Compound 19] | 52% | 700 nM |  | 
Cc1c(C(=O)/C=C/c2ccccc2)c2cc(O)ccc2n1C [Compound 75] | 39% | 400 nM |  | 
O=c1/c(=C/c2ccc(N3CCOCC3)cc2)sc2nc3ccccc3n12 [Compound 32] | 67% | 500 nM |  | 
Cc1c(C(=O)/C=C/c2cccs2)c2cc(O)ccc2n1C [Compound 76] | 48% | 400 nM |  | 
Cc1ccc2nsnc2c1/N=C/c1c(O)ccc2ccccc12 [Compound 53] | 64% | 500 nM |  | 
O=c1nc(-c2ccc(Br)cc2)cc(-c2ccc([N+](=O)[O-])cc2)[nH]1 [Compound 84] | 47% | 300 nM |  | 
CN1C(=O)/C(=C\c2ccc(-c3cccc([N+](=O)[O-])c3)o2)SC1=S [Compound 115] | 48% | 600 nM |  | 
O=C1C=CC(=O)N1c1ccc(OC(F)(F)C(F)F)c(N2C(=O)C=CC2=O)c1 [Compound 20] | 60% | 900 nM |  | 
O=[N+]([O-])c1ccc(CN2CCN(c3cccc(Cl)c3)CC2)o1 [Compound 80] | 55% | 500 nM |  | 
OCc1cccc(/N=C/c2cccc(O)c2O)c1 [Compound 57] | 61% | 300 nM |  | 
Cc1ccc(/N=C/c2cc(Br)cc(Br)c2O)c(C)c1 [Compound 54] | 54% | 500 nM |  | 
CN(C)c1ccc(/C=C2\SC(=S)N(C3CCS(=O)(=O)C3)C2=O)cc1 (stereo not drawn) [Compound 110] | 36% | 600 nM |  | 
N=C1NC(=O)/C(=C\c2ccc(-c3ccc(I)cc3)o2)S1 [Compound 29] | 63% | 700 nM |  | 
CCCCOc1ccc(NC(=S)N2CCn3c4c(c(=O)c5cc(C)ccc53)CCC42)cc1 (stereo not drawn) [Compound 81] | 63% | 100 nM |  | 
Cc1ccc(/N=C/c2cccc(O)c2O)cc1C [Compound 56] | 59% | 300 nM |  | 
CN(C)c1ccc(/C=C2\C(=O)N(c3ccc([N+](=O)[O-])cc3)N=C2N2CCOCC2)cc1 [Compound 42] | 51% | 5000 nM |  | 
O=C1S/C(=C/c2ccc(-c3ccc([N+](=O)[O-])cc3Cl)o2)C(=O)N1c1ccccc1 [Compound 27] | 48% | 700 nM |  | 

Compound | activity at 3 µM [1] | IC50 [2] | Selectivity (% A* in 1 μM) E2 [3] | remaining activity at 1 µM [4]
S=C(c1ccc(-c2cc(Cl)ccc2Cl)o1)N1CCCCC1 [Compound 35] | 56% | 500 nM |  | 
Cc1cc(C)c(O)c(/N=C/c2c(O)ccc3ccccc23)c1 [Compound 65] |  | 1000 nM | 65% | 101%
CC(C)Oc1ccc(/C=C2/SC(=S)NC2=O)cc1 [Compound 26] |  | 3000 nM | 61% | 85%
O=C1N=C(c2ccccc2)S/C1=C/c1ccc2ccccc2c1 [Compound 41] |  | 1000 nM | 82% | 141%
O=C1/C(=C\c2cccc([N+](=O)[O-])c2)Sc2ccccc21 [Compound 52] |  | 1300 nM | 63% | 124%
COC(=O)c1ccc(N2C(=O)c3cccc(N)c3C2=O)cc1 [Compound 21] |  | 800 nM | 75% | 91%
Cc1ccc(/C=N/c2ccc(C(N)=O)cc2)o1 [Compound 73] |  | 1500 nM | 64% | 90%
Oc1c(Br)cc(Cl)cc1/C=N/c1ccccn1 [Compound 64] |  | 900 nM | 117% | 118%
O=c1nc(C(F)(F)F)cc(/C=C/c2ccc(-c3ccc(Br)cc3)o2)[nH]1 [Compound 39] |  | 1000 nM | 98% | 132%
O=[N+]([O-])c1ccc(Cl)cc1CN1CCN(CCO)CC1 [Compound 82] |  | 300 nM | 47% | 77%
N/N=C\c1ccc(-c2cccs2)s1 [Compound 37] |  | 1000 nM | 97% | 93%
COc1ccccc1/C=C1\N=C(c2ccccc2Cl)OC1=O [Compound 49] |  | 1000 nM | 43% | 127%
CCOC(=O)c1c(/N=C/c2cc(Br)ccc2O)sc2c1CCCC2 [Compound 68] |  | 1000 nM | 57% | 91%
Cc1ccc2nc(-c3ccc(/N=C/c4ccc([N+](=O)[O-])s4)cc3)sc2c1 [Compound 72] |  | 800 nM | 77% | 95%
CC(=C\c1ccccc1)/C=C1/SC(=N)NC1=O [Compound 31] |  | 900 nM | 104% | 108%
O=C1/C(=C\c2ccc(Cl)c([N+](=O)[O-])c2)Sc2ccccc21 [Compound 50] |  | 100 nM | 103% | 155%
